The values that follow come from ChEMBL document CHEMBL4130347, “Molecular topology: A new strategy for antimicrobial resistance control” (2017).

One assay relates to Enterococcus faecalis. Description: Antibacterial activity against Enterococcus faecalis ATCC 51299 by microdilution method. The class given is functional.
Assay [1] concerns Staphylococcus aureus. Description: Antibacterial activity against methicillin-susceptible Staphylococcus aureus ATCC 25923 by microdilution method. In kind it is functional. A general note: In broth dilution the organism is exposed to a series of concentrations in liquid medium.
In assay [2] the test system is Staphylococcus epidermidis. Description: Antibacterial activity against Staphylococcus epidermidis ATCC 12228 by microdilution method. In kind it is functional, organism-based.
The test system of a further assay is Escherichia coli. The experiment in a line: Antibacterial activity against Escherichia coli ATCC 25922 by microdilution method. In kind it is functional, organism-based.
In assay [3] the test system is Staphylococcus aureus. The experiment in a line: Antibacterial activity against methicillin-resistant Staphylococcus aureus ATCC 33591 by microdilution method. The class given is functional.
In assay [4] the test system is Staphylococcus aureus. The experiment in a line: Antibacterial activity against methicillin-resistant Staphylococcus aureus ATCC 33591 assessed as decrease in levels of viable bacteria at 2 times MIC after 8 hrs by time-kill assay. In kind it is functional.
Assay [5] has as its system Staphylococcus aureus. Description: Antibacterial activity against methicillin-resistant Staphylococcus aureus ATCC 33591 assessed as growth inhibition after 48 hrs. The class given is functional, organism-based.
For assay [6], the system named is Staphylococcus aureus. Description: Antibacterial activity against methicillin-resistant Staphylococcus aureus ATCC 33591 assessed as decrease in levels of viable bacteria at 2 times MIC after 4 hrs by time-kill assay. The class given is functional.
Assay [7] has as its system Staphylococcus aureus. Description: Antibacterial activity against methicillin-resistant Staphylococcus aureus ATCC 33591 assessed as decrease in levels of viable bacteria at 2 times MIC after 24 hrs by time-kill assay. In kind it is functional.
The subject of assay [8] is Bacteria. Description: Inhibition of bacterial RecA expressed in Escherichia coli ATCC 25922 harboring GyrA Ser83Leu mutant assessed as decrease in SOS induction at 50 uM after 8 hrs in presence of 0.25 times MIC of ciprofloxacin by fluorescence assay relative to control.
The test system of assay [9] is Bacteria. Description: Inhibition of bacterial RecA expressed in Escherichia coli ATCC 25922 harboring GyrA Ser83Leu mutant/ParC Ser80Arg mutant/GyrA Asp87Asn mutant/marR deletion mutant assessed as decrease in SOS induction at 50 uM after 8 hrs in presence of 0.25 times MIC of ciprofloxacin by fluorescence assay relative to control.
The test system of assay [10] is Bacteria. The experiment in a line: Inhibition of bacterial RecA expressed in Escherichia coli ATCC 25922 harboring GyrA Ser83Leu mutant/ParC Ser80Arg mutant/GyrA Asp87Asn mutant assessed as decrease in SOS induction at 50 uM after 8 hrs in presence of 0.25 times MIC of ciprofloxacin by fluorescence assay relative to control.
Assay [11] relates to Bacteria. The experiment in a line: Inhibition of bacterial RecA expressed in Escherichia coli ATCC 25922 harboring GyrA Ser83Leu mutant/ParC Ser80Arg mutant assessed as decrease in SOS induction at 50 uM after 8 hrs in presence of 0.25 times MIC of ciprofloxacin by fluorescence assay relative to control.
Assay [12] concerns Bacteria. Description: Inhibition of bacterial RecA expressed in Escherichia coli ATCC 25922 assessed as decrease in SOS induction at 50 uM after 8 hrs in presence of 0.25 times MIC of ciprofloxacin by fluorescence assay relative to control.

In brackets after ≈: the same amount, converted by molar mass. Activity calls are given as the source filed them. The rule behind the calls is not given here.

For orientation: MIC means the lowest concentration that inhibits growth of the organism. Low readings indicate a more susceptible organism, high ones a less susceptible organism. For the compound `COc1cc(C(=O)OCCn2c(N3CCN(CCO)CC3)nc3c2c(=O)n(C)c(=O)n3C)cc(OC)c1OC`, the MIC was in the range of 32 to 128 µg/mL (≈ 58.5 to 234 µM) with Enterococcus faecalis, 16 to 128 µg/mL (≈ 29.3 to 234 µM) in the assay on Staphylococcus aureus [1] and 16 to 128 µg/mL (≈ 29.3 to 234 µM) in the assay with Staphylococcus aureus [3]. Further, the result in assay [2] was Active. In the assay with Escherichia coli, the outcome was inactive.
Regarding `O=C(CCN1CCOCC1)NNC(=O)c1ccc([N+](=O)[O-])cc1[N+](=O)[O-]`, the MIC was 32 to 128 µg/mL (≈ 87.1 to 348 µM) in the assay with Enterococcus faecalis, 16 to 128 µg/mL (≈ 43.6 to 348 µM) against Staphylococcus aureus [1] and 16 to 128 µg/mL (≈ 43.6 to 348 µM) with Staphylococcus aureus [3]. Moreover, the outcome in assay [2] was Active. Further, the result with Escherichia coli was inactive.
For the compound `NNc1ccc(S(=O)(=O)N2CCOCC2)cc1[N+](=O)[O-]`, the result (in the assay on Enterococcus faecalis; in assay [2]) was Active. In addition, the MIC with Staphylococcus aureus [1] and in the assay on Staphylococcus aureus [3] was 16 to 128 µg/mL (≈ 52.9 to 423 µM) each time. For the same compound, in the assay with Escherichia coli, the outcome was inactive.
`CCN(CC)CCN1C(=O)C(O)=C(C(=O)c2ccc(OC)cc2)C1c1ccc(C)o1` (configuration not stated): the Activity is 2.5 deltalog10CFU/ml with Staphylococcus aureus [4], 1.5 deltalog10CFU/ml in the assay with Staphylococcus aureus [6] and 4 deltalog10CFU/ml in the assay with Staphylococcus aureus [7]. The outcome with Enterococcus faecalis and with Escherichia coli was inactive. Also, the MIC against Staphylococcus aureus [1] and in the assay with Staphylococcus aureus [3] was 16 to 128 µg/mL (≈ 38.8 to 310 µM) each time. The outcome in assay [2] was Active. The “growth inhibition (GI)” value with Staphylococcus aureus [5] was “Dose-dependent effect”.
With `COc1cc(C(=O)OCCCn2c(=O)c3c(nc(N4CCN(CCO)CC4)n3C)n(C)c2=O)cc(O)c1OC`, the outcome (with Enterococcus faecalis; in assay [2]) was Active. Also, the MIC in the assay on Staphylococcus aureus [1] and with Staphylococcus aureus [3] was 16 to 128 µg/mL (≈ 29.3 to 234 µM) throughout. The outcome with Escherichia coli was inactive.
In general, inhibition refers to the drop in the measured response relative to a control, in per cent. Take `O=C(O)CSc1cc(NS(=O)(=O)c2ccc(Cl)cc2)c2ccccc2c1O`: the minimal inhibitory concentration (MIC) in the assay on Staphylococcus aureus [1] and with Staphylococcus aureus [3] was 16 to 128 µg/mL (≈ 37.7 to 302 µM) throughout. Also, the inhibition in the assay with Bacteria [8], in the assay on Bacteria [9], in the assay on Bacteria [10], in the assay on Bacteria [11] and with Bacteria [12] was 31 to 47% throughout. Moreover, the outcome with Escherichia coli was Active.
Turning to `COCCOC(=O)C1=C(C)OC(N)=C(C#N)C12C(=O)N(CC(=O)OC)c1ccccc12` (configuration not stated), the MIC against Enterococcus faecalis was 32 to 128 µg/mL (≈ 74.9 to 299 µM); in the assay with Staphylococcus aureus [1], 16 to 128 µg/mL (≈ 37.4 to 299 µM); with Staphylococcus aureus [3], 16 to 128 µg/mL (≈ 37.4 to 299 µM). Also, the result in assay [2] was Active. Besides, the outcome with Escherichia coli was inactive.
